Values of other authors in patent publication US12403113B2, “Composition containing creatine fatty ester for use in medicine” (COMMISSARIAT À L'ÉNERGIE ATOMIQUE ET AUX ÉNERGIES …, priority 2019, dated 2025).

Columns and labels:
CrT−/y mice = settings: 0.02 mg/g body/weight/day for 5 days, intracerebroventricular; preliminary
DMD patients = settings: 5 g of creatine/day for 8 weeks, oral
[1] = tested on: Huntington's disease patients; settings: 8 g/day for 16 weeks, 64 patients
CTD patients = settings: pure creatine

Compound	performance in the object recognition task (CrT−/y mice)	muscle Phosphocreatine/Inorganic Phosphate ratio (DMD patients)	muscle strength in short term (DMD patients)	tolerability (DMD patients; 18 patients vs placebo)	serum 8-hydroxy-2′-deoxyguanosine (marker of oxidative DNA damage) [1]	health and longevity (mice)	improvement in CTD patients (CTD patients)
CCCCCCCCCCCCOC(=O)CN(C)C(=N)N [DCE, dodecyl creatine ester]	significantly improves	–	–	–	–	–	–
CN(CC(=O)O)C(=N)N [creatine, 2-1(methylguanidino) acetic acid]	–	significantly improved	preserved	well tolerated	marked decrease	improves health and longevity	does not lead to any improvement
